Bounds are passed on as bounds.

The subject of the test is white blood cells contained in the whole blood. In words: Time required for lyzing white blood cells: MPO released from whole blood by surfactant, MPO enzyme immunoassay kit (Example 1). It is filed as cell-based, human. To be noted: room temperature; for MPO concentration of whole blood: 100 μl of 11% solution per 1 ml healthy human whole blood, mean ± SD of 3. As to the method: 10 ml of healthy human whole blood was collected in a test tube containing 10 mg of EDTA-2K (manufactured and sold by Dojin Laboratories, Japan) and the resultant EDTA-containing whole blood sample was stirred well, and then 1 ml of the whole blood sample was taken out from the test tube. To the 1 ml whole blood sample taken out from the test tube was added 100 μl of an aqueous 11% solution of Triton™ X-100 (manufactured and sold under the brand of SIGMA™, U.S.A.), and the resultant mixture was stirred well and then allowed to stand at room temperature for 1 minute to obtain a (whole blood sample/surfactant) mixture containing the lyzed white blood cells. Substantially the same operation as mentioned above was repeated except that the standing time at room temperature was changed to 5 minutes, 30 minutes and 60 minutes to thereby lyze the white blood cells contained in the whole blood.
After the above-mentioned period of time, each of the obtained (whole blood sample/surfactant) mixtures containing the lyzed white blood cells was individually diluted 2,000-fold with a sample diluting buffer (20 mM phosphate buffer (pH 7.4) containing 0.1% bovine serum albumin and 0.2% sodium azide), which buffer is attached to BIOXYTEC™ MPO Enzyme Immunoassay kit (manufactured and sold by OXIS International, Inc., U.S.A.), and the resultant diluted mixture was taken as a sample for the measurement of myeloperoxidase (MPO).
With respect to the above-mentioned sample for the measurement of MPO and a standard MPO solution (which is obtained by dissolving commercially available MPO in the above mentioned buffer), the measurement of the MPO concentration was performed using BIOXYTEC™ MPO Enzyme Immunoassay kit (manufactured and sold by OXIS International, Inc., U.S.A.) in accordance with the instruction manual attached thereto.
Specifically, with respect to the measurement of the MPO concentration of the above-mentioned sample, MPO (manufactured and sold by Elastin Products Co., INC., U.S.A.) was added to the sample so that the final concentration of the added MPO became 5 ng/ml or 10 ng/ml, and the resultant mixture was measured with respect to the MPO concentration. From the obtained value of MPO concentration, a calibration curve for each sample was obtained. The obtained calibration curve was corrected, based on its relationship with a calibration curve obtained with respect to the standard MPO solution, and the corrected calibration curve of each sample was used to determine the MPO concentration of the whole blood. The measurement was conducted 3 times, and a mean value±standard deviation was obtained.

As to “α-[4-(1,1,3,3,-Tetramethylbutyl)phenyl]-ω-hydroxypoly(oxy-1,2-ethanediyl) [Triton ™ X-100]”, the “Time from start of treatment within which MPO is released from the white blood cells to a satisfactory extent” value (healthy human whole blood) is not above 60 min. The “MPO concentration of whole blood” value was 9.88 ± 0.50 µg/mL (treatment time 1 minute), 10.17 ± 0.63 µg/mL (treatment time 5 minutes), 9.94 ± 0.72 µg/mL (treatment time 30 minutes) and 10.01 ± 0.22 µg/mL (treatment time 60 minutes).

Source of the values: patent US6599713B1, “Method for quantitating leukocyte count in whole blood sample” (priority 1999, dated 2003).
